{
  "source": "patent US12364696B2",
  "about": "“Treatment of autoimmune disease” (priority 2019, dated 2025)",
  "key": {"[1]": {"test_system": "male patients with alopecia areata of the beard (BAA)"}, "[2]": {"test_system": "folliculitis decalvans and tufted folliculitis", "experiment": "Additional case studies (data not shown)", "assay_type": "in vivo, human", "conditions": "sublingual"}, "[3]": {"experiment": "Pharmacokinetics of sublingual tofacitinib, plasma LC MS/MS", "assay_type": "in vivo, human", "conditions": "for concentration at 24 h: other: sublingual", "method": "Blood samples were left to coagulate at room temperature for 20 minutes before centrifuging at 3500 rotations per minute for 15 minutes. The resulting separated plasma was extracted and stored at −20 degrees Celsius prior to processing using the liquid chromatography tandem mass spectrometry (LC MS/MS) method.\nThe mobile phase consisted of (A) 5 mM ammonium acetate pH 4 and (B) methanol. The gradient profile developed was: 0-2.0 min, 90% A, 10% B; 2.0-3.0 min, 30% A, 70% B; 3.0-4.0 min, 90% A, 10% B. A Shimadzu LC MS/MS-8050 triple quadrupole mass spectrometer (Shimadzu, Kyoto, Japan) was used to perform the mass spectrometry. MS/MS analysis was performed in positive ion mode using electrospray ionization conditions."}, "[4]": {"conditions": "BAA subtype multiple patches, % of n = 45"}, "[5]": {"conditions": "BAA subtype solitary patch, % of n = 45"}, "[6]": {"conditions": "BAA subtype total beard loss, % of n = 45"}, "[7]": {"conditions": "all patients, n = 45 (21 oral, 24 sublingual)"}, "[8]": {"conditions": "degree of scalp hair regrowth Complete"}, "[9]": {"conditions": "degree of scalp hair regrowth Complete, % of n = 45"}, "[10]": {"conditions": "degree of scalp hair regrowth None"}, "[11]": {"conditions": "degree of scalp hair regrowth None, % of n = 45"}, "[12]": {"conditions": "degree of scalp hair regrowth Partial"}, "[13]": {"conditions": "degree of scalp hair regrowth Partial, % of n = 45"}},
  "note": "Where two headings read alike, the source gives them in different places.",
  "data": [
    {"smiles": "C[C@@H]1CCN(C(=O)CC#N)C[C@@H]1N(C)c1ncnc2[nH]ccc12", "note": "[tofacitinib]", "values": [
      {"measurement": "Duration of treatment after which complete beard regrowth was achieved (mean)", "setting": "[1]; 10 complete beard responders", "result": 16.0, "unit": "months"},
      {"measurement": "Duration of treatment after which complete beard regrowth was achieved (range)", "setting": "[1]; 10 complete beard responders", "result": "5.0-28.0 months"},
      {"measurement": "Men with complete beard regrowth who also achieved complete scalp hair regrowth", "setting": "[1]; 10 complete beard responders", "result": 60, "unit": "%"},
      {"measurement": "Degree of beard regrowth Complete, number of patients", "setting": "[1]; BAA subtype multiple patches", "result": 7},
      {"measurement": "Degree of beard regrowth None, number of patients", "setting": "[1]; BAA subtype multiple patches", "result": 8},
      {"measurement": "Degree of beard regrowth Partial, number of patients", "setting": "[1]; BAA subtype multiple patches", "result": 9},
      {"measurement": "Degree of beard regrowth Complete, % of patients", "setting": "[1]; [4]", "result": 15.6, "unit": "%"},
      {"measurement": "Degree of beard regrowth None, % of patients", "setting": "[1]; [4]", "result": 17.8, "unit": "%"},
      {"measurement": "Degree of beard regrowth Partial, % of patients", "setting": "[1]; [4]", "result": 20.0, "unit": "%"},
      {"measurement": "Degree of beard regrowth Complete, number of patients", "setting": "[1]; BAA subtype solitary patch", "result": 0},
      {"measurement": "Degree of beard regrowth None, number of patients", "setting": "[1]; BAA subtype solitary patch", "result": 2},
      {"measurement": "Degree of beard regrowth Partial, number of patients", "setting": "[1]; BAA subtype solitary patch", "result": 0},
      {"measurement": "Degree of beard regrowth Complete, % of patients", "setting": "[1]; [5]", "result": 0.0, "unit": "%"},
      {"measurement": "Degree of beard regrowth None, % of patients", "setting": "[1]; [5]", "result": 4.5, "unit": "%"},
      {"measurement": "Degree of beard regrowth Partial, % of patients", "setting": "[1]; [5]", "result": 0.0, "unit": "%"},
      {"measurement": "Degree of beard regrowth Complete, number of patients", "setting": "[1]; BAA subtype total beard loss", "result": 3},
      {"measurement": "Degree of beard regrowth None, number of patients", "setting": "[1]; BAA subtype total beard loss", "result": 6},
      {"measurement": "Degree of beard regrowth Partial, number of patients", "setting": "[1]; BAA subtype total beard loss", "result": 10},
      {"measurement": "Degree of beard regrowth Complete, % of patients", "setting": "[1]; [6]", "result": 6.7, "unit": "%"},
      {"measurement": "Degree of beard regrowth None, % of patients", "setting": "[1]; [6]", "result": 13.3, "unit": "%"},
      {"measurement": "Degree of beard regrowth Partial, % of patients", "setting": "[1]; [6]", "result": 22.2, "unit": "%"},
      {"measurement": "Degree of beard regrowth Complete, % of patients", "setting": "[1]; [7]", "result": 22.2, "unit": "%"},
      {"measurement": "Degree of beard regrowth Complete, number of patients", "setting": "[1]; [7]", "result": "Ten"},
      {"measurement": "Degree of beard regrowth None, % of patients", "setting": "[1]; [7]", "result": 35.6, "unit": "%"},
      {"measurement": "Degree of beard regrowth None, number of patients", "setting": "[1]; [7]", "result": 16},
      {"measurement": "Degree of beard regrowth Partial, % of patients", "setting": "[1]; [7]", "result": 42.2, "unit": "%"},
      {"measurement": "Degree of beard regrowth Partial, number of patients", "setting": "[1]; [7]", "result": 19},
      {"measurement": "Degree of beard regrowth Complete, number of patients", "setting": "[1]; all patients, n = 45 (21 oral, 24 sublingual), listed as oral tofacitinib", "result": 10},
      {"measurement": "Degree of beard regrowth Complete, number of patients", "setting": "[1]; [8]", "result": 6},
      {"measurement": "Degree of beard regrowth None, number of patients", "setting": "[1]; [8]", "result": 0},
      {"measurement": "Degree of beard regrowth Partial, number of patients", "setting": "[1]; [8]", "result": 1},
      {"measurement": "Degree of beard regrowth Complete, % of patients", "setting": "[1]; [9]", "result": 13.3, "unit": "%"},
      {"measurement": "Degree of beard regrowth None, % of patients", "setting": "[1]; [9]", "result": 0.0, "unit": "%"},
      {"measurement": "Degree of beard regrowth Partial, % of patients", "setting": "[1]; [9]", "result": 2.2, "unit": "%"},
      {"measurement": "Degree of beard regrowth Complete, number of patients", "setting": "[1]; [10]", "result": 1},
      {"measurement": "Degree of beard regrowth None, number of patients", "setting": "[1]; [10]", "result": 14},
      {"measurement": "Degree of beard regrowth Partial, number of patients", "setting": "[1]; [10]", "result": 3},
      {"measurement": "Degree of beard regrowth Complete, % of patients", "setting": "[1]; [11]", "result": 2.2, "unit": "%"},
      {"measurement": "Degree of beard regrowth None, % of patients", "setting": "[1]; [11]", "result": 31.1, "unit": "%"},
      {"measurement": "Degree of beard regrowth Partial, % of patients", "setting": "[1]; [11]", "result": 6.7, "unit": "%"},
      {"measurement": "Degree of beard regrowth Complete, number of patients", "setting": "[1]; [12]", "result": 3},
      {"measurement": "Degree of beard regrowth None, number of patients", "setting": "[1]; [12]", "result": 2},
      {"measurement": "Degree of beard regrowth Partial, number of patients", "setting": "[1]; [12]", "result": 15},
      {"measurement": "Degree of beard regrowth Complete, % of patients", "setting": "[1]; [13]", "result": 6.7, "unit": "%"},
      {"measurement": "Degree of beard regrowth None, % of patients", "setting": "[1]; [13]", "result": 4.5, "unit": "%"},
      {"measurement": "Degree of beard regrowth Partial, % of patients", "setting": "[1]; [13]", "result": 33.3, "unit": "%"},
      {"measurement": "Patients with mild adverse events (upper respiratory infections, elevated liver transaminases, fatigue, acne)", "setting": "[1]; n = 45, oral or sublingual", "result": 10},
      {"measurement": "Serious adverse events", "setting": "[1]; n = 45, oral or sublingual", "result": "no serious adverse events"},
      {"measurement": "SALT score post-tofacitinib, Mean ± SD", "setting": "[1]; n = 45, oral or sublingual, pre-tofacitinib 62.0 ± 38.9", "result": "41.7 ± 38.5"},
      {"measurement": "SALT score post-tofacitinib, Median (Range)", "setting": "[1]; n = 45, oral or sublingual, pre-tofacitinib 69.0 (2.0-100.0)", "result": "29.0 (0.0-100.0)"},
      {"measurement": "Complete response, number of patients", "setting": "[1]; oral, N = 21, beard", "result": 0},
      {"measurement": "No response, number of patients", "setting": "[1]; oral, N = 21, beard", "result": 9},
      {"measurement": "Partial response, number of patients", "setting": "[1]; oral, N = 21, beard", "result": 12},
      {"measurement": "Complete response, number of patients", "setting": "[1]; sublingual, n = 24, beard", "result": 10},
      {"measurement": "No response, number of patients", "setting": "[1]; sublingual, n = 24, beard", "result": 7},
      {"measurement": "Partial response, number of patients", "setting": "[1]; sublingual, n = 24, beard", "result": 7},
      {"measurement": "Usefulness for treatment of folliculitis decalvans and tufted folliculitis", "setting": "[2]", "result": "useful"},
      {"measurement": "Number of patients who achieved tmax at 0.5 hour", "setting": "[3]; Week 28, last dose, 15 patients", "result": "One"},
      {"measurement": "Trace plasma levels prior to the last dose (range)", "setting": "[3]; Week 28, pre-dose, 10 patient samples", "result": "0.5 to 10.0", "unit": "ng/mL"},
      {"measurement": "half-life", "setting": "[3]; human, plasma, 5 mg, sublingual, Week 28 (FIG. 5b), read-out: Estimated elimination half-life (plasma concentration halving from 29.14 ng/ml to 14.6 ng/ml) (converted)", "result": "~11", "unit": "h"},
      {"measurement": "concentration at 24 h", "setting": "[3]; human, plasma, 5 mg, Week 16, likely spuriously elevated by the nocte dose", "result": 7.39, "unit": "ng/mL"},
      {"measurement": "concentration at 24 h", "setting": "[3]; human, plasma, 5 mg, Week 28, no nocte dose", "result": 0.28, "unit": "ng/mL"},
      {"measurement": "Tmax", "setting": "[3]; human, plasma, sublingual, 5 mg tablet, read-out: Average time (tmax) to maximum plasma concentration", "result": 1, "unit": "h"},
      {"measurement": "Cmax", "setting": "[3]; human, plasma, sublingual, 5 mg tablet, read-out: Maximum plasma concentration (Cmax), average", "result": 43.2, "unit": "ng/mL"}
    ]}
  ]
}
